Measured values: patent publication US9670162B2, “Mitochondrial aldehyde dehyrogenase-2 modulators and methods of use thereof” (The Board of Trustees of the Leland Stanford Junior …, priority 2013, dated 2017)
Numbering of substitutions follows the chain as printed.

Experiments:
[1] = biological target: T1, human ALDH2*2 recombinant mutant enzyme (E487K) (Homo sapiens, UniProt P05091, E504K); assay: ALDH2 enzymatic assay (NADH at 340 nm), recombinant mutant enzyme; assay type: biochemical; parameters: key: −: no activation or inhibition; +: activation less than control 1; ++: activation similar to control 1, within 10%; +++: activation more than control 1 and less than control (compound 161); ++++: activation similar to compound 161, within 10%; conditions: activation relative to benchmarks control 1 and compound 161
T1 construct: His-tag (pTrcHis vector) (N); made in house; host or cells: E. coli BL21
T1 sequence (P05091 18-517 E504K): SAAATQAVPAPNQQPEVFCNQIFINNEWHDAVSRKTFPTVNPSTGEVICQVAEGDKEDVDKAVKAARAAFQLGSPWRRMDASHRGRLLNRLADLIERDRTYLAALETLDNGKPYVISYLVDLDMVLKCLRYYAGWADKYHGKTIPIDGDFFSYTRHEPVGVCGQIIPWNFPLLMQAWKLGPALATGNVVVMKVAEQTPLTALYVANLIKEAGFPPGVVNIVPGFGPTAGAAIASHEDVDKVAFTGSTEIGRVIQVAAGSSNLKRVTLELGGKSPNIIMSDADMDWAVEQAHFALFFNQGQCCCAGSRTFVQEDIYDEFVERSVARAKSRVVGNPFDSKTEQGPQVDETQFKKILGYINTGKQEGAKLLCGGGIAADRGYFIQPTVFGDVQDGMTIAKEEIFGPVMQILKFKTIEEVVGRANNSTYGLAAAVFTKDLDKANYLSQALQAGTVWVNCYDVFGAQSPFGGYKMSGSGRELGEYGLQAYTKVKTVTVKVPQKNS

human ALDH2 wild type = biological target: T2, human ALDH2 wild type (Homo sapiens, UniProt P05091); assay: ALDH2 enzymatic assay (NADH at 340 nm), recombinant wild type enzyme; assay type: biochemical; parameters: key: −: no activation or inhibition; +: activation less than control 1; ++: activation similar to control 1, within 10%; +++: activation more than control 1 and less than control (compound 161); ++++: activation similar to compound 161, within 10%; conditions: activation relative to benchmarks control 1 and compound 161
T2 construct: His-tag (pTrcHis vector) (N); made in house; host or cells: E. coli BL21
T2 sequence (P05091 18-517): T1 sequence (P05091 18-517 E504K) with K487E

Aqueous solubility = assay type: physicochemical
Description: (§1) In vitro ADMET of compounds of the present disclosure was carried out according to known methods in the art. Below are data for certain compounds of the present disclosure.

LogD (pH 7.4) = assay type: physicochemical
Description: as §1

HLM stability T1/2 = assay type: in vitro ADME; conditions: human, liver microsomes; read-out: HLM T1/2
Description: as §1

RLM stability T1/2 = assay type: in vitro ADME; conditions: rat, liver microsomes
Description: as §1

MLM stability T1/2 = assay type: in vitro ADME; conditions: mouse, liver microsomes
Description: as §1

NHPLM stability T1/2 = assay type: in vitro ADME; conditions: monkey, liver microsomes
Description: as §1

Plasma stability, human = assay type: in vitro ADME; conditions: plasma
Description: as §1

Plasma stability, rat = assay type: in vitro ADME
Description: as §1

CYP3A4 = CYP3A4 (Homo sapiens, UniProt P08684); assay: Cyp inhibition 3A4; assay type: in vitro ADME; conditions: 10 μM
Sequence of CYP3A4 (P08684 whole entry): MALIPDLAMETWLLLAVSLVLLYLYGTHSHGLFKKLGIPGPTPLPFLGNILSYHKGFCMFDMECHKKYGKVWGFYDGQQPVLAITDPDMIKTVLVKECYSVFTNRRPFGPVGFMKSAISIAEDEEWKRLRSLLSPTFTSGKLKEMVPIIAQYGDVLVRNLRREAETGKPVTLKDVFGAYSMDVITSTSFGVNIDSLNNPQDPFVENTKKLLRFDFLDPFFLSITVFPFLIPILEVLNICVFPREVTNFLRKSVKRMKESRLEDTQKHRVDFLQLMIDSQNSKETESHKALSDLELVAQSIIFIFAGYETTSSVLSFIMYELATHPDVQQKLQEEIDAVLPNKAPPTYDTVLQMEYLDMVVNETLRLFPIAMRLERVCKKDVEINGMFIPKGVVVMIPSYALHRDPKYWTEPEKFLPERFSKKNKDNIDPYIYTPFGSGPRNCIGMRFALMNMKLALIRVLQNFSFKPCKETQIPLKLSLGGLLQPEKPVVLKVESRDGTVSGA
Description: as §1

CYP2C9 = CYP2C9 (Homo sapiens, UniProt P11712); assay: Cyp inhibition 2C9; assay type: in vitro ADME
Sequence of CYP2C9 (P11712 whole entry): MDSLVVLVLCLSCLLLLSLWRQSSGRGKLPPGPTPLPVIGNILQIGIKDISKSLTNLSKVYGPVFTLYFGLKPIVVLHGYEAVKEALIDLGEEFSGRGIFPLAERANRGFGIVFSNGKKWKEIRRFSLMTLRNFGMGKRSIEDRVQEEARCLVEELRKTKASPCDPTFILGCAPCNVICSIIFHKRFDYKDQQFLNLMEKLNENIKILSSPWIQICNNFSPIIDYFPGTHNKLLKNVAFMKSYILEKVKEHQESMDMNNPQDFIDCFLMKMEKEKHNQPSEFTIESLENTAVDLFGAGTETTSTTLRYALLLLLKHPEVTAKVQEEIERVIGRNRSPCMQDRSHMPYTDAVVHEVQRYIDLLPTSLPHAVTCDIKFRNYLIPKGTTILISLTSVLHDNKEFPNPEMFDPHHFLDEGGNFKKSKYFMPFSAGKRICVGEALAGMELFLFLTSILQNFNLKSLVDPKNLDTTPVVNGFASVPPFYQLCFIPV
Description: as §1

CYP2C19 = CYP2C19 (Homo sapiens, UniProt P33261); assay: Cyp inhibition 2C19; assay type: in vitro ADME; conditions: 10 μM
Sequence of CYP2C19 (P33261 whole entry): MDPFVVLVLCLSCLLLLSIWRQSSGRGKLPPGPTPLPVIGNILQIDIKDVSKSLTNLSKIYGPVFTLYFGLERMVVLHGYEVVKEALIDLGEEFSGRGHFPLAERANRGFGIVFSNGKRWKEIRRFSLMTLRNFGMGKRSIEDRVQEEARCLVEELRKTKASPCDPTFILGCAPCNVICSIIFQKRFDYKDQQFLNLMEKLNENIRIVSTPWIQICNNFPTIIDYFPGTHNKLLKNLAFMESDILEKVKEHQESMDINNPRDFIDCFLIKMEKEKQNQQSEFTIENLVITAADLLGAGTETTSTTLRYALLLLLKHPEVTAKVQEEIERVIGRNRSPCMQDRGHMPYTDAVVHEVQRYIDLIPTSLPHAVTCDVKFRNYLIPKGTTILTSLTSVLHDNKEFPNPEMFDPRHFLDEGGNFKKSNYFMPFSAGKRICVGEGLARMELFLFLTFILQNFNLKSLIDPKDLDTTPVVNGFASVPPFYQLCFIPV
Description: as §1

CYP2D6 = CYP2D6 (Homo sapiens, UniProt P10635); assay: Cyp inhibition 2D6; assay type: in vitro ADME
Sequence of CYP2D6 (P10635 whole entry): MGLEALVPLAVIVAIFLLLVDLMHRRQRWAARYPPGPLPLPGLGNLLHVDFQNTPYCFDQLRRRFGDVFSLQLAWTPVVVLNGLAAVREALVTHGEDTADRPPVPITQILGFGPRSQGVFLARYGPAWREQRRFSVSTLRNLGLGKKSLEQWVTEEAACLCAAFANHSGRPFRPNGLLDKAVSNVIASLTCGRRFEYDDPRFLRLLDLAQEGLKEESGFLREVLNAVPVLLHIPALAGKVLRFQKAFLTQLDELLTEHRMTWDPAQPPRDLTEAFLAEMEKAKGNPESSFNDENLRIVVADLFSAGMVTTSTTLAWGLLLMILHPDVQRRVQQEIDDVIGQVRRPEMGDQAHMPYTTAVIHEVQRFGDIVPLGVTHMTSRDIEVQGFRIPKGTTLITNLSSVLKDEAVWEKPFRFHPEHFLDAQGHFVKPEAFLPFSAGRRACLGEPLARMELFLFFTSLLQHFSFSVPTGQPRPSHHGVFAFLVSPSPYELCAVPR
Description: as §1

CYP1A2 = biological target: T3, CYP1A2 (Homo sapiens, UniProt P05177); assay: Cyp inhibition 1A2; assay type: in vitro ADME; conditions: 10 μM
T3 sequence (P05177 1-516): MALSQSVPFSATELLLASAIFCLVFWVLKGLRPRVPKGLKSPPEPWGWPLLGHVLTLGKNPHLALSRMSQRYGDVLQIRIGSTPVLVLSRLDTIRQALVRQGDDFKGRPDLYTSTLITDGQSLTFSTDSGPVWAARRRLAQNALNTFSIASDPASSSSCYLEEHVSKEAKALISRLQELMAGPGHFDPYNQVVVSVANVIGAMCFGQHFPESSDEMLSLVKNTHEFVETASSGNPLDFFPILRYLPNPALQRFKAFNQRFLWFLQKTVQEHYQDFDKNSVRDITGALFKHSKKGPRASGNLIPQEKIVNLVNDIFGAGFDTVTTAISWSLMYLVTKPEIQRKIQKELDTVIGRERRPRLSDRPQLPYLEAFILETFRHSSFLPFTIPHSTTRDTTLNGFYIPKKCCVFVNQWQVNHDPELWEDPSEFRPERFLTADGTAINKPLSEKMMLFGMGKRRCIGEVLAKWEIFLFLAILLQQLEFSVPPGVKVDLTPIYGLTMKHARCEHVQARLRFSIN
Description: as §1

Caco-2 permeability = assay type: in vitro ADME; conditions: human
Description: as §1

[2] = Plasma protein binding (PPB), human; assay type: in vitro ADME
Description: as §1

[3] = Plasma protein binding (PPB), rat; assay type: in vitro ADME
Description: as §1

Compound | ALDH2 (mutant) [1] | ALDH2 (wild-type) (human ALDH2 wild type) | other results
COc1ccc(CNC(=O)c2c(Cl)cc[n+]([O-])c2OCC2CC2)cc1F [Compound 169] | ++ | + | Aqu. Solu. (Aqueous solubility): 272 µg/mL; logD (LogD (pH 7.4)): 1.6; half-life (HLM stability T1/2): 3.85 min; half-life (RLM stability T1/2): 82.5 min; half-life (MLM stability T1/2): 100 min; half-life (NHPLM stability T1/2): 51.3 min; Plasma stability Human (Plasma stability, human): 100%; Plasma stability Rat (Plasma stability, rat): 100%; inhibition at 10 µM (CYP3A4): 7.7%; inhibition at 10 µM (CYP2C9): -12%; inhibition at 10 µM (CYP2C19): 3.5%; inhibition at 10 µM (CYP2D6): 0.81%; inhibition at 10 µM (CYP1A2): 1.1%; Papp A→B (Caco-2 permeability; A-B, read-out: Caco-2 Papp A-B): 1.22 ×10⁻⁶ cm/s; Papp B→A (Caco-2 permeability; B-A): 13.1 ×10⁻⁶ cm/s; efflux ratio (Caco-2 permeability; ratio, read-out: Caco-2 Papp B-A/A-B): 10.7; fraction unbound [2]: 0.098; fraction unbound [3]: 0.367
COc1ccc(CNC(=O)c2c(Cl)ccnc2OCC2CCCC2)cc1F [Compound 200] | ++ | ++ | 
COc1ccc(CNC(=O)c2c(Cl)cccc2Br)cc1O [Compound 105] | + | − | 
COc1ccc(CNC(=O)c2c(Cl)cccc2OCCC(C)C)cc1F [Compound 122] | ++ | + | 
COc1ccc(CNC(=O)c2c(C)cccc2Br)cc1 [Compound 113] | + | + | 
COc1ccc(CNC(=O)c2c(Cl)cccc2Oc2ccccc2)cc1F [Compound 110] | ++ | + | 
CCCOc1nccc(Cl)c1C(=O)NCc1ccc(OC)c(F)c1 [Compound 194] | +++ | + | 
COc1ccc(CNC(=O)c2c(Cl)cccc2OCC2CC2)cc1F [Compound 135] | ++++ | ++++ | Aqu. Solu. (Aqueous solubility): 5 µg/mL; logD (LogD (pH 7.4)): 3.8; half-life (HLM stability T1/2): 2.67 min; half-life (RLM stability T1/2): 0.753 min; half-life (MLM stability T1/2): 0.753 min; half-life (NHPLM stability T1/2): 0.685 min
COc1ccc(CNC(=O)c2c(Cl)cccc2Br)cc1Cl [Compound 104] | + | + | 
COc1ccc(CNC(=O)c2c(Cl)cccc2OCC(C)N(C)C)cc1F (stereo not shown) [Compound 166] | ++ | ++ | 
COc1ccc(CNC(=O)c2c(OCC3CC3)ccnc2Cl)cc1F [Compound 170] | +++ | ++ | 
CCC(C)Sc1nccc(Cl)c1C(=O)NCc1ccc(OC)c(F)c1 (stereo not shown) [Compound 217] | ++ | + | 
COc1ccc(CNC(=O)c2c(C(F)(F)F)ccnc2OCC2CC2)cc1F [Compound 225] | + | + | 
COc1ccc(CNC(=O)c2c(Cl)cccc2OC2CCCC2)cc1F [Compound 146] | +++ | ++ | 
COC(=O)c1cccc(Oc2cccc(Cl)c2C(=O)NCc2ccc(OC)c(F)c2)c1 [Compound 158] | + | ++ | 
COc1ccc(CNC(=O)c2c(Cl)cccc2OCC2CCC2)cc1F [Compound 144] | +++ | +++ | 
COCCOc1cccc(Cl)c1C(=O)NCc1ccc(OC)c(F)c1 [Compound 143] | ++ | ++ | 
COc1ccc(CNC(=O)c2c(C(F)(F)F)ccnc2OCC2CCC2)cc1F [Compound 229] | + | + | 
COc1ccc(CNC(=O)c2c(Cl)cccc2OC(C)C2CC2)cc1F (stereo not shown) [Compound 150] | ++ | +++ | 
COc1cc(F)c(CNC(=O)c2c(Cl)ccnc2OCC2CC2)cc1F [Compound 190] | ++++ | ++++ | 
COc1ccc(CNC(=O)c2c(C)ccnc2OCC2CCC2)cc1F [Compound 235] | + | + | 
COc1ccc(CNC(=O)c2c(Cl)ccnc2OCC2CCNC2)cc1F (stereo not shown) [Compound 205] | + | + | 
COc1ccc(CNC(=O)c2c(Cl)cccc2OC(C)C)cc1F [Compound 140] | +++ | +++ | 
CC(C)Oc1ccc(CNC(=O)c2c(Cl)ccnc2Cl)cc1F [Compound 177] | − | − | 
COc1ccc(CNC(=O)c2c(Cl)ccnc2Cl)c(F)c1F [Compound 174] | ++ | + | 
COc1ccc(CNC(=O)c2c(Cl)ccnc2OCC(C)(C)C)cc1F [Compound 203] | ++ | ++ | 
COc1ccc(CNC(=O)c2c(Cl)cncc2OCC(C)C)cc1F [Compound 240] | ++ | + | 
COc1ncc(CNC(=O)c2c(Cl)ccnc2OCC2CC2)cc1F [Compound 246] | ++ | + | 
COc1ccc(CNC(=O)c2c(Cl)ccnc2OCC2CCC2)cc1F [Compound 198] | +++ | +++ | 
